Assay results: patent US9723842B2, “Isothiazolinone biocides enhanced by zinc ions” (ARCH CHEMICALS, INC., priority 2006, dated 2017)
Read-outs that look alike come from different tables or passages of the source.

System: Ps. aeruginosa
Experiment: Minimum inhibitory concentration against mono-cultures (microtitre plate, doubling dilutions)
Format: cell-based, Pseudomonas aeruginosa (NCIB 10421)
Details: for MIC: Pseudomonas aeruginosa
Method: Pseudomonas aeruginosa (NCIB 10421) maintained on nutrient agar, were used to study the synergy between BIT and ZnCl2. Bacteria were grown to stationary phase (approximately 24 hours) in nutrient broth (approximately 10^9 organisms per ml). A 0.1% (v/v) inoculum was used to seed fresh medium and 100 μl of the inoculum was then added to each well of a microtitre plate, except for the first well which contained 200 μl. Using doubling dilutions, the concentration of the compounds under investigation were varied in each well along the ordinate axis. The presence or absence of growth was recorded by visual inspection after 24 hours incubation at 37° C. Bacteria were grown to stationary phase (approximately 24 hours) in nutrient broth (approximately 10^9 organisms per ml). A 0.1% (v/v) inoculum was used to seed fresh medium and 100 μl of the inoculum was then added to each well of a microtitre plate, except for the first well which contained 200 μl. Using doubling dilutions, the concentration of the compounds under investigation were varied in each well along the ordinate axis. The presence or absence of growth was recorded by visual inspection after 24 hours incubation at 37° C.

[1] = Comparative Example A, Table 10

Compound: CCCCn1sc2ccccc2c1=O [BBIT, N-(n-butyl)-1,2-benzisothiazolin-3-one]
- MIC (ppm) against Ps. aeruginosa (Example 5, Table 8, column 1): 315 ppm
- MIC (ppm) against Ps. aeruginosa (Example 5, Table 8, column 2): 360 ppm
- MIC (ppm) against Ps. aeruginosa (Example 5, Table 8, column 3): 42 ppm
- MIC (ppm) against Ps. aeruginosa (Example 5, Table 8, column 4): 180 ppm

Compound: O=c1[nH]sc2ccccc12 [BIT, 1,2-benzisothiazolin-3-one]
- MIC (ppm) against Ps. aeruginosa [1]: 30 ppm
- MIC (ppm) against Ps. aeruginosa (Example 2, Table 2, column 1): 30 ppm
- MIC (ppm) against Ps. aeruginosa (Example 2, Table 2, column 2): 42 ppm
- MIC (ppm) against Ps. aeruginosa (Example 2, Table 2, column 3): 42 ppm
- MIC (ppm) against Ps. aeruginosa (Example 2, Table 2, column 4): 30 ppm

Compound: [Cl-].[Na+] [NaCl2, Sodium Chloride]
- MIC (ppm) against Ps. aeruginosa [1]: None detected (greater than 675) ppm

Compound: Cn1sccc1=O [MIT, 2-methyl-4-isothiazolin-3-one]
- MIC (read-out: MIC (ppm) against Ps. aeruginosa, Example 4, Table 6, column 1): 9 µg/mL
- MIC (read-out: MIC (ppm) against Ps. aeruginosa, Example 4, Table 6, column 2): 6 µg/mL
- MIC (read-out: MIC (ppm) against Ps. aeruginosa, Example 4, Table 6, column 3): 10.5 µg/mL
- MIC (read-out: MIC (ppm) against Ps. aeruginosa, Example 4, Table 6, column 4): 8 µg/mL

Compound: [Cl-].[Cl-].[Zn+2] [ZnCl2, zinc chloride]
- MIC (ppm) against Ps. aeruginosa (Example 2, Table 2, column 1): 300 ppm
- MIC (ppm) against Ps. aeruginosa (Example 2, Table 2, column 2): 450 ppm
- MIC (ppm) against Ps. aeruginosa (Example 2, Table 2, column 3): 375 ppm
- MIC (ppm) against Ps. aeruginosa (Example 2, Table 2, column 4): 450 ppm
- MIC (ppm) against Ps. aeruginosa (Example 3, Table 4, column 1): 294 ppm
- MIC (ppm) against Ps. aeruginosa (Example 3, Table 4, column 2): 294 ppm
- MIC (ppm) against Ps. aeruginosa (Example 3, Table 4, column 3): 210 ppm
- MIC (ppm) against Ps. aeruginosa (Example 3, Table 4, column 4): 600 ppm
- MIC (ppm) against Ps. aeruginosa (Example 4, Table 6, column 1): 210 ppm
- MIC (ppm) against Ps. aeruginosa (Example 4, Table 6, column 2): 210 ppm
- MIC (ppm) against Ps. aeruginosa (Example 4, Table 6, column 3): 450 ppm
- MIC (ppm) against Ps. aeruginosa (Example 4, Table 6, column 4): 450 ppm
- MIC (ppm) against Ps. aeruginosa (Example 5, Table 8, column 1): 525 ppm
- MIC (ppm) against Ps. aeruginosa (Example 5, Table 8, column 2): 525 ppm
- MIC (ppm) against Ps. aeruginosa (Example 5, Table 8, column 3): 600 ppm
- MIC (ppm) against Ps. aeruginosa (Example 5, Table 8, column 4): 600 ppm
